In article PMC10974828, “Identification of Novel Flavonoids and Ansa-Macrolides with Activities against Leishmania donovani through Natural Product Library Screening” (Pathogens, 2024):
Where “and” joins values, the source holds several entries; their conditions need not be identical. Equal values may be shown once. Read-outs that look alike come from different tables or passages of the source.

Experiments:
[1] = system: L. donovani intracellular amastigotes; test: Intracellular L. donovani amastigote assay in THP-1 cells (image-based); format: cell-based, Leishmania donovani; conditions: for IC50: Leishmania donovani, amastigotes in PMA-treated THP-1 cells, 72 h, read-out: Intracellular L. donovani Inhibition IC50; for Selectivity Index (SI): THP-1 CC50 / amastigotes IC50
Experimental: (§1) PMA-treated THP-1 cells were seeded at 0.8 × 10^4 cells per well in a 384-well plate in RPMI-1640 complete medium supplemented with 10% FBS. After 48 h of incubation at 37 °C in the presence of 5% CO2, the L. donovani amastigotes, isolated from infected hamster liver, were added to the cell culture at a ratio of 10:1. The infected THP-1 cells were treated with screening compounds (the same set used in the promastigotes HTS) at 10 µM, with amphotericin B and miltefosine serving as positive controls and 0.5% DMSO as a negative control. After 72 h, the cells and parasites were washed, stained, and fixed with 5 µM DAPI and 4% PFA. Images were acquired through Operetta® CLS™ (PerkinElmer, Shelton, CT, USA), and the numbers of parasites, host cells, and infection ratios were quantified using the Columbus™ software (https://www.perkinelmer.com/product/image-data-storage-and-analysis-system-columbus, accessed on 7 February 2024) (PerkinElmer, Shelton, CT, USA). The hits identified from the screening were confirmed by testing in a 10-point, 1/2 dilution manner starting from 400, 200, 100, or 50 μM in duplicates of two independent experiments to calculate the IC50 values.
(§2) All of the IC50 and the half-maximal cytotoxic concentration (CC50) values were calculated using two independent experiments. Outliers were excluded, and the dose–response curves were fitted using the GraphPad Prism V6.0 software (GraphPad Software, San Diego, CA, USA) by using a sigmoidal dose–response equation with a variable hill slope option.

[2] = system: L. donovani promastigotes; test: L. donovani promastigote viability assay (resazurin); format: cell-based; conditions: Leishmania donovani; 72 h exposure, resazurin readout, two independent experiments; read-out: L. donovani Promastigote Inhibition IC50
Experimental: The inhibition of L. donovani promastigote growth was assessed by measuring the conversion of resazurin to resorufin. The promastigotes were dispensed at a density of 5 × 10^4 L. donovani promastigotes per well into 384-well plates and exposed to the natural product library composed of 2562 molecules at 10 μM for 72 h. Following the incubation, resazurin sodium salt was added, and the plates were further incubated for 5 h before fixation using 4% paraformaldehyde. The results were then analyzed using a Victor3™ plate reader (PerkinElmer, Shelton, CT, USA) at an emission wavelength of 590 nm and an excitation wavelength of 530 nm. Amphotericin B and miltefosine served as reference drugs for inhibiting the growth of L. donovani promastigotes. The hits identified from the screening were confirmed by testing in a 10-point, 1/2 dilution manner starting from 400, 200, 100, or 50 μM (depending on the solubility and activity) in duplicates of two independent experiments to calculate the IC50 values.
as §2

[3] = system: THP-1 cells; test: Host cell cytotoxicity in the intracellular Leishmania assay (THP-1 cell ratio); format: cell-based, Human; conditions: host THP-1 cells in the intracellular assay, 72 h
Experimental: as §1, §2

[4] = system: T. brucei; parameters: method as in PMID 30319238; conditions: read-out: IC50 against T. brucei; cited from earlier work
[5] = system: L. donovani amastigotes; parameters: method as in PMID 30319238; conditions: read-out: IC50 against L. donovani amastigotes; cited from earlier work
[6] = system: L. infantum; parameters: method as in PMID 32441133; conditions: read-out: IC50 against L. infantum; cited from earlier work
[7] = system: intracellular amastigotes; parameters: method as in PMID 37091674; conditions: read-out: IC50 against intracellular amastigotes; cited from earlier work
[8] = system: hepatic parasites; parameters: method as in PMID 37091674; conditions: murine model of visceral leishmaniasis; cited from earlier work
[9] = system: eukaryotic RNA polymerase; parameters: method as in PMID 32342856; conditions: higher constant indicates lower affinity; cited from earlier work
[10] = system: T. cruzi; parameters: method as in PMID 28498323; conditions: read-out: IC50 against T. cruzi; cited from earlier work
[11] = system: L. donovani amastigotes; parameters: method as in PMID 28498323; conditions: read-out: IC50 against L. donovani amastigotes; cited from earlier work
[12] = system: Trypanosoma brucei; parameters: method as in PMID 28498323; conditions: read-out: IC50 against Trypanosoma brucei; cited from earlier work

CC(C)C1CC(=O)Oc2cc(O)c3c(=O)cc(-c4ccc(O)c(O)c4)oc3c21 (centres unmarked) [BMD-NP-01550]
IC50 [1]: 3.44 ± 0.64 µM | Selectivity Index (SI) [1]: 6.1 | IC50 [2]: 23.5 ± 0.52 µM | THP-1 Cell Ratio CC50 [3]: 20.84 ± 1.04 µM

COc1cc(C=C2Oc3c(ccc4c3C(c3ccnn3C(C)C)CC(=O)O4)C2=O)cc(OC)c1OC (centres unmarked) [BMD-NP-01586]
IC50 [1]: 2.97 ± 0.33 µM | Selectivity Index (SI) [1]: 12.4 | IC50 [2]: 36.3 ± 0.42 µM | THP-1 Cell Ratio CC50 [3]: 36.90 ± 1.13 µM

methyl-ent-3β-hydroxylabd-8(17)-en-15-oate
IC50 [4]: 3.84 µM | IC50 [5]: 7.82 µM

CCCC1CC(=O)Oc2c(C(=O)C(C)C(C)O)c(O)c3c(c21)OC(C)(C)C=C3 (centres unmarked) [Calanolide E2]
IC50 [6]: 29.1 µM

O=c1cc(-c2ccc(O)cc2)oc2cc(O)cc(O)c12 [apigenin, 4′,5,7-trihydroxyflavone]
IC50 [7]: 2.3 µM | reduction in hepatic parasites [8]: 99.7%

OC1C=C2CCN3Cc4cc5c(cc4C(C1O)C23)OCO5 (centres unmarked) [BMD-NP-00820]
IC50 [1]: 1.74 ± 0.27 µM | Selectivity Index (SI) [1]: >28.7 | IC50 [2]: 3.99 ± 0.4 µM | THP-1 Cell Ratio CC50 [3]: >50.00 µM

CCCCOc1ccc(C(=O)Oc2c(C)c3c4c5c2C(=O)C(=C(N2CCCCC2)C5=O)NC(=O)C(C)=CC=CC(C)C(O)C(C)C(O)C(C)C(OC(C)=O)C(C)C(OC)C=COC(C)(O3)C4=O)cc1 (centres unmarked) [BMD-NP-02070]
IC50 [1]: 3.34 ± 0.42 µM | Selectivity Index (SI) [1]: >15.0 | IC50 [2]: 29.9 ± 1.27 µM

O[C@H]1[C@H]2c3cc4c(cc3CN3CCC(=C[C@@H]1O)[C@H]23)OCO4 [BMD-NP-01077, Lycorine]
IC50 [1]: 2.63 ± 0.57 µM | Selectivity Index (SI) [1]: >19.0 | IC50 [2]: 6.99 ± 0.74 µM | THP-1 Cell Ratio CC50 [3]: >50.00 µM

CO[C@H]1/C=C/O[C@@]2(C)Oc3c(C)c(O)c4c(O)c(cc(O)c4c3C2=O)NC(=O)/C(C)=C\C=C\[C@H](C)[C@H](O)[C@@H](C)[C@@H](O)[C@@H](C)[C@H](OC(C)=O)[C@@H]1C [Rifamycin]
binding constant for eukaryotic RNA polymerase relative to prokaryotic RNA polymerase [9]: 100 times

CCCCCCC/C=C/C=C/C(=O)NCCc1ccc(O)cc1 [dodeca-2E,4E-dienoic acid 4-hydroxy-2-phenylethylamide]
IC50 [10]: 5.97 µM | IC50 [11]: 13.3 µM | IC50 [12]: 7.17 µM

COc1ccc(CCOc2cc([C@@H]3CC(=O)Oc4cc(O)c5c(=O)cc(-c6ccc(O)c(O)c6)oc5c43)ccc2OC)cc1 [BMD-NP-02255]
IC50 [1]: 4.9 ± 0.65 µM | IC50 [2]: 45.9 ± 1.09 µM | THP-1 Cell Ratio CC50 [3]: >50.00 µM

O=C1C[C@H](c2cccnc2)c2c(cc(O)c3c(=O)c(-c4ccc(Cl)cc4)coc23)O1 [BMD-NP-01559]
IC50 [1]: 2.37 ± 0.49 µM | Selectivity Index (SI) [1]: >21.1 | IC50 [2]: 19.08 ± 0.13 µM | THP-1 Cell Ratio CC50 [3]: > 50.00 µM

COc1ccc([C@H]2CC(=O)Oc3ccc4c(c32)O/C(=C\c2cc(OC)c(OC)cc2OC)C4=O)cc1O [BMD-NP-01562]
IC50 [1]: 5.1 ± 0.34 µM | Selectivity Index (SI) [1]: >9.8 | IC50 [2]: 9.88 ± 0.71 µM | THP-1 Cell Ratio CC50 [3]: >50.00 µM

COc1cc([C@@H]2CC(=O)Oc3ccc4c(=O)c(-c5ccccc5)coc4c32)ccc1O [BMD-NP-01555]
IC50 [1]: 2.2 ± 0.29 µM | IC50 [2]: 12.9 ± 0.28 µM | THP-1 Cell Ratio CC50 [3]: >50.00 µM

COc1ccc(NC2=C3NC(=O)C(C)=CC=CC(C)C(O)C(C)C(O)C(C)C(OC(C)=O)C(C)C(OC)C=COC4(C)Oc5c(C)c(OC(=O)c6ccc(C)cc6)c(c(c5C4=O)C2=O)C3=O)cc1 (centres unmarked) [BMD-NP-02085]
IC50 [1]: 1.76 ± 0.85 µM | Selectivity Index (SI) [1]: 7.5 and 7.4 | IC50 [2]: 1.76 ± 0.28 µM | THP-1 Cell Ratio CC50 [3]: 13.07 µM and 13.07 ± 0.56 µM

COC1C=COC2(C)Oc3c(C)c(OC(=O)c4ccccc4)c4c(c3C2=O)C(=O)C(N2CC(C)OC(C)C2)=C(NC(=O)C(C)=CC=CC(C)C(O)C(C)C(O)C(C)C(OC(C)=O)C1C)C4=O (centres unmarked) [BMD-NP-02084]
IC50 [1]: 2.12 ± 0.4 µM | Selectivity Index (SI) [1]: 5.9 | IC50 [2]: 2.53 ± 0.14 µM | THP-1 Cell Ratio CC50 [3]: 12.45 ± 1.02 µM
